# From article PMC7031696 (Cell chemical biology, 2019)
# Like-named read-outs stand apart in the source and are kept apart here.
# Key:
# [1] = system: asynchronous 3D7-A10 parasite cultures; experiment: Standard 72-h exposure asexual blood stage susceptibility assay (IC50^72h); format: cell-based, Plasmodium falciparum; settings: Plasmodium falciparum, 3D7, 72 h, read-out: Overall (72hr assay) Mean IC50 (IC50^72h)
# [2] = system: Plasmodium falciparum 3D7-A10 parasites; experiment: Stage specificity assay (8-h exposure of synchronized stages, IC50^8h); format: cell-based; settings: for IC50: Plasmodium falciparum
# [3] = system: 3D7-MR4 trophozoite parasite-infected RBCs; experiment: Metabolomic profiling (hydrophilic metabolite changes, UHPLC-MS); format: cell-based, Plasmodium falciparum
compound,measurement,setting,value
COc1cncc(-c2cncc(N3CCN(c4ccncc4)CC3)n2)c1 [MMV085071],IC50,[1],105 nM
same,Ratio lowest IC50 8hr/IC50 72hr,[2]; 3D7-A10,0.6
same,IC50,"[2]; 3D7, read-out: Early rings Mean IC50 (IC50^8h), 8-h exposure 0–8 hr, 3D7-A10, survival at 60 h",893 nM
same,IC50,"[2]; 3D7, read-out: Early trophozoites Mean IC50 (IC50^8h), 8-h exposure 16–24 hr, 3D7-A10, survival at 60 h",61.1 nM
same,IC50,"[2]; 3D7, read-out: Late rings Mean IC50 (IC50^8h), 8-h exposure 8–16 hr, 3D7-A10, survival at 60 h",492 nM
same,IC50,"[2]; 3D7, read-out: Late trophozoites Mean IC50 (IC50^8h), 8-h exposure 24–32 hr, 3D7-A10, survival at 60 h",81.4 nM
same,IC50,"[2]; 3D7, read-out: Schizonts Mean IC50 (IC50^8h), 8-h exposure 32–40 hr, 3D7-A10, survival at 60 h",254 nM
same,Peak Activity (Table S1),[2]; stage(s) with the lowest IC50^8h,Trophs
same,changes within the set of metabolites detected (low fold change group),"[3]; 10 × IC50^72h, 2.5 hr, trophozoites",did not induce major changes
same,Log2(fold changes) 3-phosphoglycerate,"[3]; metabolite 3-phosphoglycerate, log2 fold change",-0.3571
same,Log2(fold changes) 4-Pyridoxic acid,"[3]; metabolite 4-Pyridoxic acid, log2 fold change",0.1725
same,Log2(fold changes) 4-aminobutyrate,"[3]; metabolite 4-aminobutyrate, log2 fold change",-0.2370
same,Log2(fold changes) 4-phosphopantetheine,"[3]; metabolite 4-phosphopantetheine, log2 fold change",0.0000
same,Log2(fold changes) 4-phosphopantothenate,"[3]; metabolite 4-phosphopantothenate, log2 fold change",-0.0279
same,Log2(fold changes) 5-aminopentanoic acid,"[3]; metabolite 5-aminopentanoic acid, log2 fold change",0.0000
same,Log2(fold changes) 5-methyl-THF,"[3]; metabolite 5-methyl-THF, log2 fold change",0.0000
same,Log2(fold changes) 5-phosphoribosyl-1-pyrophosphate,"[3]; metabolite 5-phosphoribosyl-1-pyrophosphate, log2 fold change",0.0000
same,Log2(fold changes) 6-phospho-D-gluconate,"[3]; metabolite 6-phospho-D-gluconate, log2 fold change",-0.0766
same,Log2(fold change) HVDD,[3]; metabolite HVDD,1.5471
same,Log2(fold change) Hydroxyisocaproic acid,[3]; metabolite Hydroxyisocaproic acid,0.0000
same,Log2(fold change) IDP,[3]; metabolite IDP,0.0000
same,Log2(fold change) IMP,[3]; metabolite IMP,-0.0355
same,Log2(fold change) Inositol,[3]; metabolite Inositol,0.0000
same,Log2(fold change) Isopentyl-PP,[3]; metabolite Isopentyl-PP,0.0000
same,Log2(fold change) L-arginino-succinate,[3]; metabolite L-arginino-succinate,0.7586
same,Log2(fold change) LD,[3]; metabolite LD,1.2308
same,Log2(fold change) Myristoyl/tetradecanoyl-CoA,[3]; metabolite Myristoyl/tetradecanoyl-CoA,0.0000
same,Log2(fold change) N-Acetyl-L-alanine,[3]; metabolite N-Acetyl-L-alanine,0.1191
same,Log2(fold change) N-acetyl-L-ornithine,[3]; metabolite N-acetyl-L-ornithine,1.0380
same,Log2(fold change) N-acetyl-glucosamine-1/6-phosphate,[3]; metabolite N-acetyl-glucosamine-1/6-phosphate,0.0154
same,Log2(fold change) N-acetyl-glutamate,[3]; metabolite N-acetyl-glutamate,0.1593
same,Log2(fold change) N-acetyl-glutamine,[3]; metabolite N-acetyl-glutamine,-0.2990
same,Log2(fold change) N-carbamoyl-L-aspartate,[3]; metabolite N-carbamoyl-L-aspartate,0.1424
same,Log2(fold change) NAD+,[3]; metabolite NAD+,0.0189
same,Log2(fold change) NADH,[3]; metabolite NADH,0.0000
same,Log2(fold change) NADP+,[3]; metabolite NADP+,0.1777
same,Log2(fold change) NADPH,[3]; metabolite NADPH,0.0000
same,Log2(fold change) O-acetyl-L-serine,[3]; metabolite O-acetyl-L-serine,0.0000
same,Log2(fold change) Octoluse 8/1P,[3]; metabolite Octoluse 8/1P,0.0000
same,Log2(fold change) Octoluse Bisphosphate,[3]; metabolite Octoluse Bisphosphate,0.0955
same,Log2(fold change) PD,[3]; metabolite PD,0.1245
same,Log2(fold change) PE,[3]; metabolite PE,0.4481
same,Log2(fold change) PEE,[3]; metabolite PEE,1.1300
same,Log2(fold change) PEEK,[3]; metabolite PEEK,1.3266
same,Log2(fold change) PVNF,[3]; metabolite PVNF,0.3702
same,Log2(fold change) Pyroglutamic acid,[3]; metabolite Pyroglutamic acid,0.0000
same,Log2(fold change) Pyrophosphate,[3]; metabolite Pyrophosphate,0.0000
same,Log2(fold change) Ribose-5-phosphate,[3]; metabolite Ribose-5-phosphate,0.0000
same,Log2(fold change) S-adenosyl-L-homocysteine,[3]; metabolite S-adenosyl-L-homocysteine,-0.0131
same,Log2(fold change) S-adenosyl-L-methioninamine,[3]; metabolite S-adenosyl-L-methioninamine,0.0000
same,Log2(fold change) S-adenosyl-L-methionine,[3]; metabolite S-adenosyl-L-methionine,0.0000
same,Log2(fold change) S-methyl-5'-thioadenosine,[3]; metabolite S-methyl-5'-thioadenosine,0.0000
same,Log2(fold change) SD,[3]; metabolite SD,0.5330
same,Log2(fold change) SDL,[3]; metabolite SDL,0.1100
same,Log2(fold change) SID,[3]; metabolite SID,-0.3348
same,Log2(fold change) Sedoheptulose bisphosphate,[3]; metabolite Sedoheptulose bisphosphate,0.0203
same,Log2(fold change) Thiamine pyrophosphate,[3]; metabolite Thiamine pyrophosphate,0.0000
same,Log2(fold changes) UDP-D-glucose,"[3]; metabolite UDP-D-glucose, log2 fold change",0.0450
same,Log2(fold changes) UDP-D-glucuronate,"[3]; metabolite UDP-D-glucuronate, log2 fold change",0.0222
same,Log2(fold changes) UDP-N-acetyl-glucosamine,"[3]; metabolite UDP-N-acetyl-glucosamine, log2 fold change",-0.1104
same,Log2(fold changes) UDP,"[3]; metabolite UDP, log2 fold change",0.8151
same,Log2(fold changes) UMP,"[3]; metabolite UMP, log2 fold change",-0.2015
same,Log2(fold changes) UTP,"[3]; metabolite UTP, log2 fold change",-0.1278
same,Log2(fold change) hydroxyphenylpyruvate,[3]; metabolite hydroxyphenylpyruvate,0.0000
same,Log2(fold change) hydroxyproline/Aminolevulinate,[3]; metabolite hydroxyproline/Aminolevulinate,-0.0385
same,Log2(fold change) hypoxanthine,[3]; metabolite hypoxanthine,0.0000
same,Log2(fold change) indole,[3]; metabolite indole,0.0000
same,Log2(fold change) inosine,[3]; metabolite inosine,-0.0754
same,Log2(fold change) isoleucine,[3]; metabolite isoleucine,-0.1140
same,Log2(fold change) lactate,[3]; metabolite lactate,0.0000
same,Log2(fold change) leucine,[3]; metabolite leucine,-0.0775
same,Log2(fold change) lysine,[3]; metabolite lysine,0.0000
same,Log2(fold change) malate,[3]; metabolite malate,-0.0512
same,Log2(fold change) maleic acid,[3]; metabolite maleic acid,-0.0636
same,Log2(fold change) methionine,[3]; metabolite methionine,0.2308
same,Log2(fold change) myo-inositol,[3]; metabolite myo-inositol,0.0000
same,Log2(fold change) nicotinamide mononucleotide,[3]; metabolite nicotinamide mononucleotide,0.0000
same,Log2(fold change) nicotinate,[3]; metabolite nicotinate,0.2062
same,Log2(fold change) ornithine,[3]; metabolite ornithine,0.0000
same,Log2(fold change) orotate,[3]; metabolite orotate,0.3476
same,Log2(fold change) orotidine-5'-phosphate,[3]; metabolite orotidine-5'-phosphate,0.4326
same,Log2(fold change) oxaloacetate,[3]; metabolite oxaloacetate,0.0000
same,Log2(fold change) p-aminobenzoate,[3]; metabolite p-aminobenzoate,0.0000
same,Log2(fold change) p-hydroxybenzoate,[3]; metabolite p-hydroxybenzoate,0.0000
same,Log2(fold change) pantothenate,[3]; metabolite pantothenate,-0.2410
same,Log2(fold change) phenylalanine,[3]; metabolite phenylalanine,-0.1015
same,Log2(fold change) phenylpyruvate,[3]; metabolite phenylpyruvate,0.0000
same,Log2(fold change) phosphoenolpyruvate,[3]; metabolite phosphoenolpyruvate,-0.3652
same,Log2(fold change) prephenate,[3]; metabolite prephenate,0.0000
same,Log2(fold change) proline,[3]; metabolite proline,0.0444
same,Log2(fold change) pyridoxine,[3]; metabolite pyridoxine,0.0000
same,Log2(fold change) pyruvate,[3]; metabolite pyruvate,-0.4378
same,Log2(fold change) riboflavin,[3]; metabolite riboflavin,-0.6618
same,Log2(fold change) ribose,[3]; metabolite ribose,0.0000
same,Log2(fold change) ribose-phosphate,[3]; metabolite ribose-phosphate,-0.0725
same,Log2(fold change) ribulose-5-phosphate,[3]; metabolite ribulose-5-phosphate,-0.2555
same,Log2(fold change) serine,[3]; metabolite serine,0.5038
same,Log2(fold change) sn-glycerol-3-phosphate,[3]; metabolite sn-glycerol-3-phosphate,-0.1967
same,Log2(fold change) succinate/Methylmalonic acid,[3]; metabolite succinate/Methylmalonic acid,-0.0635
same,Log2(fold change) succinyl-CoA/methylmalonyl-CoA,[3]; metabolite succinyl-CoA/methylmalonyl-CoA,0.0000
same,Log2(fold change) taurine,[3]; metabolite taurine,0.0000
same,Log2(fold change) thiamine,[3]; metabolite thiamine,0.0498
same,Log2(fold change) threonine/homoserine,[3]; metabolite threonine/homoserine,0.1750
same,Log2(fold change) thymidine,[3]; metabolite thymidine,0.0000
same,Log2(fold changes) thymine,"[3]; metabolite thymine, log2 fold change",0.0000
same,Log2(fold changes) trehalose-6-Phosphate,"[3]; metabolite trehalose-6-Phosphate, log2 fold change",0.0000
same,Log2(fold changes) tryptophan,"[3]; metabolite tryptophan, log2 fold change",-0.0120
same,Log2(fold changes) tyrosine,"[3]; metabolite tyrosine, log2 fold change",0.0532
same,Log2(fold changes) uridine,"[3]; metabolite uridine, log2 fold change",0.0000
